Laboratory results published in article PMC6364417, “Kinase inhibitor library screening identifies synergistic drug combinations effective in sensitive and resistant melanoma cells” (Journal of Experimental & Clinical Cancer Research : CR, 2019).

Assays:
A375 cells = assay: Synergy determination with the Chou-Talalay method (CompuSyn), cell viability 72 h; type: cell-based, human; conditions: 72 h cell viability, Chou-Talalay / Synergyfinder
[1] = tested on: NHDF (normal human dermal fibroblasts); assay: Dose-response curves and IC50 in non-cancer cells, cell viability, 72 h; conditions: for IC50: Homo sapiens, NHDF, read-out: Half-maximal inhibitory concentration (IC50), NHDF Mean
Description: (§1) The IC50 values (nM) were calculated as indicated in Methods.

[2] = tested on: A375-XP cells (Vemurafenib-resistant); assay: Dose-response curves and IC50, PrestoBlue cell viability, 72 h; type: cell-based, human; conditions: Homo sapiens, n.e. = did not suppress growth below 50% in the tested concentration range, read-out: Half-maximal inhibitory concentration value (IC50), Mean
[3] = tested on: A375 parental cells expressing iRFP; assay: Long-term inhibitor treatment, iRFP fluorescence proliferation monitoring; type: cell-based, human
Description: A375 parental and BRAFi-resistant cells, virally transduced with the near-infrared fluorescent protein (iRFP) were seeded at a density of 2500 cells/well in a 24-well plate (Greiner) in at least technical triplicates. Inhibitors, single or in combination, were added at the indicated amounts and replenished every 72 h for a duration of 76 days. To assess whether any remaining cells have become resistant to the treatment and would re-emerge, the drugs were removed and the cells underwent “drug holidays” for an additional 21 days. During the long-term treatment, cell proliferation was monitored bi-weekly on a LI-COR Odyssey Infrared Imaging System (LI-COR Biosciences). Fluorescence intensity was quantified with the Image Studio™ Lite software (LI-COR Biosciences).

[4] = tested on: A375-GP cells (Dabrafenib-resistant); assay: Dose-response curves and IC50, PrestoBlue cell viability, 72 h; type: cell-based, human; conditions: Homo sapiens, n.e. = did not suppress growth below 50% in the tested concentration range, read-out: Half-maximal inhibitory concentration value (IC50), Mean
A375 cells (parental) [5] = assay: as above; type: cell-based, human; conditions: Homo sapiens, A-375, n.e. = did not suppress growth below 50% in the tested concentration range, read-out: Half-maximal inhibitory concentration value (IC50), Mean
melanoma tumors = conditions: cited from earlier work
[6] = tested on: IGR37-GP cells (Dabrafenib-resistant); assay: Dose-response curves and IC50, PrestoBlue cell viability, 72 h; conditions: Homo sapiens, 72 h, read-out: Half-maximal inhibitory concentration (IC50)
[7] = tested on: 501Mel-GP cells (Dabrafenib-resistant); assay: as above; conditions: Homo sapiens, 72 h, read-out: Half-maximal inhibitory concentration (IC50)
Description: (§2) All inhibitors used in this study were purchased from Selleck Chemicals (Houston, USA). They were dissolved in DMSO to a stock concentration of 10 mM according to the manufacturer’s instructions and stored at − 80 °C. […] Cell viability was measured with the PrestoBlue Cell Viability Reagent (ThermoFisher Scientific) on a CLARIOstar Monochromator microplate reader (BMG Labtech). Using the GraphPad Prism v5.04 software, the half-maximal inhibitor concentration values (IC50) were determined from the curve using the nonlinear log (inhibitor) vs response-variable slope (four parameters) equation. […] The IC50’s were determined for 3 biological replicates and are listed with their standard deviations.

IGR37 cells (parental) [8] = assay: as above; conditions: Homo sapiens, IGR-37, 72 h, read-out: Half-maximal inhibitory concentration (IC50)
Description: as §2
(§3) Values represent the mean of at least three biological replicates; one representative curve of at least 3 biological replicates is depicted. _XP: cells resistant to Vemurafenib (red), _GP: cells resistant to Dabrafenib (green).

[9] = tested on: NHEM (normal human epidermal melanocytes); assay: Dose-response curves and IC50 in non-cancer cells, cell viability, 72 h
Description: as §1

501Mel cells (parental) [10] = assay: Dose-response curves and IC50, PrestoBlue cell viability, 72 h; conditions: Homo sapiens, 72 h, read-out: Half-maximal inhibitory concentration (IC50)
Description: as §2, §3

[11] = tested on: A375-GP cells (Dabrafenib-resistant); assay: Kinase inhibitor library screening, PrestoBlue cell viability, 1 or 10 μM, 72 h; conditions: A375 GP, in %
[12] = tested on: 501Mel-GP cells (Dabrafenib-resistant); assay: as above; conditions: 501Mel GP, in %
[13] = tested on: IGR37-GP cells (Dabrafenib-resistant); assay: as above; conditions: IGR37 GP, in %
[14] = tested on: A375-XP cells (Vemurafenib-resistant); assay: as above; conditions: A375 XP, in %
IGR37 cells (parental) [15] = assay: as above; conditions: IGR37 Parental, in %
[16] = tested on: IGR37-XP cells (Vemurafenib-resistant); assay: as above; conditions: IGR37 XP, in %
501Mel cells (parental) [17] = assay: as above; conditions: 501Mel Parental, in %
In short: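 Single-point screen at two doses over three days. Parental and BRAF-inhibitor-resistant sublines (XP: Vemurafenib; GP: Dabrafenib) were assessed by PrestoBlue viability, reported relative to untreated cells.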

[18] = tested on: 501Mel-XP cells (Vemurafenib-resistant); assay: as above; conditions: 501Mel XP, in %
A375 cells (parental) [19] = assay: as above; conditions: A375 Parental, in %
[20] = tested on: Tyr15 phosphorylation of CDK1 (P-cdc2); assay: Western blot, phospho-cdc2 (Tyr15); type: cell-based, human; conditions: parental and resistant A375 cells, 3 h treatment
Description: (§4) Cells were seeded at a density of 10^5 cells/well in 24-well plates (Greiner). 24 h post seeding, cells were treated with inhibitors at indicated amounts for 3 h and/or 24 h. […] The following primary antibodies were used: anti-phospho-CHK1 (Ser317) (Cell Signalling Technology, 1:1000), anti-CHK1 (Cell Signalling Technology, 1:1000), anti-phospho-cdc2 (Tyr15) (Cell Signalling Technology, 1:1000), anti-cdc2 (Cell Signalling Technology, 1:1000), anti-PARP (Cell Signalling Technology, 1:1000), anti-cleaved-PARP (Cell Signalling Technology, 1:1000), anti-phospho-Erk (Tyr202/Tyr204) (Cell Signalling Technology, 1:2000), anti-Erk1/2 (Santa Cruz, Erk1 = 1:1000, Erk2 = 1:2000), anti-phospho-Akt (Ser473) (Cell Signalling Technology, 1:1500), anti-Akt1/2 (Santa Cruz, 1:1000), anti-Vinculin (Abcam, 1:1000) and anti-Tubulin (Santa Cruz, 1:5000). HRP-labeled secondary antibodies were purchased from Cell Signaling Technology (Boston, MA).

PARP cleavage = assay: Western blot, PARP cleavage in A375 cells; type: cell-based, human; conditions: A375, A375-XP, A375-GP; 24 h treatment
Description: as §4

[21] = tested on: A375 cells (parental sensitive) tumors; assay: In vivo assay, subcutaneous melanoma tumors in NSG mice; parameters: species or system NOD scid gamma (NSG) mice; conditions: NSG mice with A375 or A375-XP tumors, 8 days of daily treatment
Description: NOD scid gamma (NSG) mice were bred in-house and experiments were performed according to all applicable laws and regulations, after receiving approval by the institution’s animal experimentation ethics committee and the veterinarian service of the Ministry of Agriculture (Permit Number: 18-MDM-01). Single parental sensitive A375 cells (0.5 × 10^6 cells) and Vemurafenib-resistant A375-XP cells (2 × 10^6 cells) were resuspended in 100 μL of 1:1 mixed serum-free medium and matrigel (BD Biosciences) and injected subcutaneously in 6–8 week-old mice. […] Control mice received the respective vehicle by oral gavage and intraperitoneal injection. […] Statistical analysis was done using a two-way ANOVA followed by post-hoc Tukey’s multiple comparison tests.

[22] = tested on: IGR37-XP cells (Vemurafenib-resistant); assay: Dose-response curves and IC50, PrestoBlue cell viability, 72 h; conditions: Homo sapiens, 72 h, read-out: Half-maximal inhibitory concentration (IC50)
Description: as §2, §3

[23] = tested on: 501Mel-XP cells (Vemurafenib-resistant); assay: as above; conditions: Homo sapiens, 72 h, read-out: Half-maximal inhibitory concentration (IC50)
Description: as §2, §3

melanoma cell lines = conditions: several other melanoma cell lines; cited from earlier work

## CC[C@@H]1C(=O)N(C)c2cnc(Nc3ccc(C(=O)N[C@H]4CC[C@H](N5CCN(CC6CC6)CC5)CC4)cc3OC)nc2N1C(C)C [Volasertib]
A375 cells
  synergistic effects with the BRAF inhibitors Vemurafenib and/or Dabrafenib (in words): synergistic effects only with Dabrafenib
[1]
  IC50: 75 nM
[2]
  IC50: 21 nM
[3]
  regrowth after removal of drugs (after day 76, by day 97) (in words): had started to grow back
[3]; 40 nM (also 20 nM, data not shown)
  long-term cell growth under drug until day 76 (in words): killed all cells
[4]
  IC50: 15 nM
A375 cells (parental) [5]
  IC50: 21 nM
Melanoma tumors
  effect on melanoma tumors in vivo (in words): delay growth of melanoma tumors and to cause regression by inducing apoptosis in vivo

## C=CCn1c(=O)c2cnc(Nc3ccc(N4CCN(C)CC4)cc3)nc2n1-c1cccc(C(C)(C)O)n1 [MK-1775, reference compound]
A375 cells
  synergistic effects with the BRAF inhibitors Vemurafenib and/or Dabrafenib (in words): clear synergistic effects
[6]
  IC50: 289 nM
[7]
  IC50: 289 nM
IGR37 cells (parental) [8]
  IC50: 286 nM
[1]; fibroblasts (NHDF)
  effect on healthy cells, cell viability (in words): very modest effects
[9]; melanocytes (NHEM)
  effect on healthy cells, cell viability (in words): very modest effects
[2]
  IC50: 809 nM
[4]
  IC50: 325 nM
501Mel cells (parental) [10]
  IC50: 257 nM
A375 cells (parental) [5]
  IC50: 388 nM
[11]; 1μΜ
  cell viability (kinase inhibitor library screening): 17.5
[11]; 10μΜ
  cell viability (kinase inhibitor library screening): 1.8
[12]; 1μΜ
  cell viability (kinase inhibitor library screening): 27.8
[12]; 10μΜ
  cell viability (kinase inhibitor library screening): 24.0
[13]; 1μΜ
  cell viability (kinase inhibitor library screening): 46.6
[13]; 10μΜ
  cell viability (kinase inhibitor library screening): 41.7
[14]; 1μΜ
  cell viability (kinase inhibitor library screening): 43.8
[14]; 10μΜ
  cell viability (kinase inhibitor library screening): 8.7
IGR37 cells (parental) [15]; 1μΜ
  cell viability (kinase inhibitor library screening): 20.4
IGR37 cells (parental) [15]; 10μΜ
  cell viability (kinase inhibitor library screening): 9.8
[16]; 1μΜ
  cell viability (kinase inhibitor library screening): 45.0
[16]; 10μΜ
  cell viability (kinase inhibitor library screening): 36.2
501Mel cells (parental) [17]; 1μΜ
  cell viability (kinase inhibitor library screening): 35.1
501Mel cells (parental) [17]; 10μΜ
  cell viability (kinase inhibitor library screening): 24.2
[18]; 1μΜ
  cell viability (kinase inhibitor library screening): 11.1
[18]; 10μΜ
  cell viability (kinase inhibitor library screening): 6.5
A375 cells (parental) [19]; 1μΜ
  cell viability (kinase inhibitor library screening): 25.2
A375 cells (parental) [19]; 10μΜ
  cell viability (kinase inhibitor library screening): 4.9
[20]
  inhibitory CDK1 (cdc2) phosphorylation level (in words): reduced levels of inhibitory CDK1 (cdc2) phosphorylation
PARP cleavage
  Cleavage of PARP (in words): induced
[21]
  body weight and side effects during treatment (in words): did not lose weight
[22]
  IC50: 201 nM
[23]
  IC50: 220 nM

## CO[C@@H](C(=O)N1Cc2n[nH]c(NC(=O)c3ccc(N4CCN(C)CC4)cc3)c2C1)c1ccccc1 [Danusertib]
A375 cells
  synergistic effects with the BRAF inhibitors Vemurafenib and/or Dabrafenib (in words): clear synergistic effects
[1]
  IC50: 1170 nM
[9]; Homo sapiens, Melanocyte, read-out: Half-maximal inhibitory concentration (IC50), NHEM Mean
  IC50: 370 nM
[2]
  IC50: 295 nM
[3]; drugs replenished every 72 h, indicated concentrations
  long-term cell growth under drug until day 76 (in words): inconsistent
[4]
  IC50: 257 nM
A375 cells (parental) [5]
  IC50: 328 nM
Melanoma cell lines
  apoptosis and migration of melanoma cell lines (in words): induced apoptosis and inhibited migration
